Experimental data reported in publication PMC5882628, “Development of a Cell-Based Assay to Assess Binding of the proNGF Prodomain to Sortilin” (Cellular and Molecular Neurobiology, 2017).

What was measured:
sortilin [1] = molecular target: T1, sortilin (Homo sapiens, UniProt Q99523); assay: Cell-based assay of GSTpro (NGF prodomain) binding/uptake, wt sortilin-transfected HEK293 cells, sortilin/GST double stain, high content imaging, with detergent; settings: Fig. 6a; with detergent; sortilin-positive cells; preincubation 1 h, GSTpro 45 min
T1 construct: They were transfected with plasmids either encoding wild type sortilin, or sortilin with a mutation that renders it endocytosis deficient; expressed in transfected cells; host or cells: HEK 293 cells, transient transfection (lipofectamine)
T1 sequence (Q99523 78-831): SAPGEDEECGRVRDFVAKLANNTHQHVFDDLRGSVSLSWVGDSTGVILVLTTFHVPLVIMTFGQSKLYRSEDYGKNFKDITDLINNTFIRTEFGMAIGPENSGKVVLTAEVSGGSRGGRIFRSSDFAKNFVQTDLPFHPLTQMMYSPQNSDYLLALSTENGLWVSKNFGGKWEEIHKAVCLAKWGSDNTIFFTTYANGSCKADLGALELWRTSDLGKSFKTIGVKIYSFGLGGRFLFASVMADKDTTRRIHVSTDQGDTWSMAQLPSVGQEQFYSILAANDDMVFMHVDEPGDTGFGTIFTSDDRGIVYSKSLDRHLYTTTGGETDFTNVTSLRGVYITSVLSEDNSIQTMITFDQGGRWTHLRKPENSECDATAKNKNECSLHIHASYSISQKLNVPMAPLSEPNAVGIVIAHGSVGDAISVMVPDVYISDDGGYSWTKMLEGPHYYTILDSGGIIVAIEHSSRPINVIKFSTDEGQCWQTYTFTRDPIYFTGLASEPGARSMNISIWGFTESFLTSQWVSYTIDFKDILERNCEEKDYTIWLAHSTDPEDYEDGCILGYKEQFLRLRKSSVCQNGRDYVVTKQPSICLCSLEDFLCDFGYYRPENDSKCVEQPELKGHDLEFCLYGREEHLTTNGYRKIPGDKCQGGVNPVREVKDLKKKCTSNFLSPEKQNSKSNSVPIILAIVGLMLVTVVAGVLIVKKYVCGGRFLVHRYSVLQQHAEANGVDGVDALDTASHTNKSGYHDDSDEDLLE
Protocol: HEK 293 cells were grown in DMEM with 10% fetal bovine serum. They were transfected with plasmids either encoding wild type sortilin, or sortilin with a mutation that renders it endocytosis deficient, or an empty control vector according to manufacturer’s instructions using 20 µg lipofectamine (Thermo Fischer Scientific) with 8 µg DNA on […] per 6 cm, poly-lysine coated dish. The cells were initially plated into 24-well dishes after transfection. That intermediate step rendered more uniform cell numbers in the 96-well dishes that were used to run the actual assay. 24 h later, cells were split into black opaque-walled, clear-bottom 96 well dishes at 42000 cells in 80 µl medium/well. […] 1 h after that treatment, the medium was replaced with 80 µl medium containing the same antibody, compounds or peptides included in the preincubation medium, plus recombinant GSTpro or proNGF (either purified in-house from recombinant HEK cells or derived from an E.coli expression system at either 0 nM (negative control), or 50 nM, or, in a few instances at 5 or 10 nM. The respective concentrations are indicated in the figures 45 min after adding GSTpro or proNGF, cells were washed twice with prewarmed PBS and fixed in 4% PFA for 20 min at approximately 20 °C.
The fixed cells were washed with PBS for 15 min, followed by two 15 min washes with PBS with 0.1% Triton X-100. […] Wells to be evaluated for blocking of the sortilin-GSTpro interaction by antibodies were only stained with an antibody against the pro domain of proNGF in 10% FBS at a dilution of 1:1500 (Millipore (N-term) clone EPI318Y, Rabbit Monoclonal Antibody Catalog Number: #04-1142). […]
The following day, wells were washed 3 × 15 min with PBS/0.1% Triton X-100. […] Cellular fluorescence was quantified using an array scanner and the “Neuronal Profiler” Bioapplication (Thermo Fisher Scientific) as described below.
Sortilin-GSTpro interaction was also assessed using HEK cell derived cell lines stably expressing sortilin. […]
Images from 96 well dishes were automatically recorded with a Cellomics ArrayScan VTI HCS Reader (Thermo Scientific) using a 10× microscope objective and the build-in standard autofocus method. Fifteen 1024 × 1024 images in 4 channels (Channel 1 and 2: Filter XF5–Hoechst, to detect nuclei and all cells; Channel 3: XF53-Texas Red to detect, e.g., sortilin-positive cells; Channel 4: Filter XF93 – FITC, to detect cells positive, e.g., for the proNGF pro domain) were recorded per 96 well.
The images were analyzed with the Cellomics assay algorithm NeuronalProfiling.V3.5.

proNGF (Homo sapiens) = proNGF (Homo sapiens) (UniProt P01138); settings: cited from earlier work
proNGF (Homo sapiens), sequence (P01138 122-241): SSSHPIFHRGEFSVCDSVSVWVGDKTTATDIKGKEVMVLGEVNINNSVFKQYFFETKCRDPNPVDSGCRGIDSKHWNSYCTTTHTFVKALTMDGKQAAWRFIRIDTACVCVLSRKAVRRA

wt sortilin = assay: Competition of proNGF against GSTpro binding to wt sortilin-transfected HEK cells (stained for GST); format: cell-based, human; settings: 5, 10, or 25 nM GSTpro concomitantly with 50 nM proNGF; Fig. 3v
Protocol: HEK 293 cells were grown in DMEM with 10% fetal bovine serum. They were transfected with plasmids either encoding wild type sortilin, or sortilin with a mutation that renders it endocytosis deficient, or an empty control vector according to manufacturer’s instructions using 20 µg lipofectamine (Thermo Fischer Scientific) with 8 µg DNA on […] per 6 cm, poly-lysine coated dish. The cells were initially plated into 24-well dishes after transfection. That intermediate step rendered more uniform cell numbers in the 96-well dishes that were used to run the actual assay. […]
A-T Immunohistochemistry on HEK 293 cells using Hoechst staining (nuclei); anti-sortilin staining; or staining directed against the pro domain of proNGF (proNGF/GSTpro); or composite image showing all staining concomitantly as indicated above the panels. a–d Cells transfected with an empty expression vector and treated with GSTpro. e–h Cells transfected with a sortilin expression construct, but not treated with GSTpro. i–l Cells transfected with sortilin and GSTpro treated. m–p, Cells transfected with sortilin and proNGF purified from recombinant E.coli. q–t Cells transfected with sortilin and proNGF purified from a eukaryotic expression system. […] Black columns: Total fluorescence intensity of “sortilin-negative” cells. Red columns: Total fluorescence intensity of sortilin positive cells. […]

[2] = molecular target: internalization-mutant sortilin (human) (UniProt Q99523); assay: immunostaining of cells or tissue; HEK293 cells transiently transfected with sortilin (or empty vector) in 96-well dishes, treated 45 min with 50 nM GSTpro or proNGF, washed, fixed, permeabilised (0.1% Triton X-100), stained for sortilin and for GST or the pro domain; automated array-scanner analysis of sortilin-positive and sortilin-negative cells
sortilin [3] = settings: scintillation proximity assay; ref Andersen et al. [2014]; cited from earlier work
Excerpt: The role of sortilin signaling in several pathologic processes makes it a target for drug development. […] In addition to this assay, other in vitro assays including the binding of ligands to membrane fractions derived from sortilin-expressing cells (Carvelli et al. [2017]), surface plasmon resonance, and l ...

## PYIL [reference compound]
Sortilin [1]
  reduction of GSTpro signal by neurotensin-derived and control peptides (in words): to a lesser extent also reduced

## sortilin (from UniProt Q99523)
proNGF (Homo sapiens)
  Kd: 5 nM

## euk. proNGF: proNGF isolated from a mammalian expression system
Wt sortilin
  competition against GSTpro binding to sortilin (in words): compete against GSTpro binding to wt sortilin

## proNGF isolated from recombinant E. coli: Recombinant human proNGF expressed and purified from E.coli, purchased from Alamone labs
Wt sortilin
  competition against GSTpro binding to sortilin (in words): compete against GSTpro binding to wt sortilin

## GSTpro (GST C-terminally linked to the pro domain from NGF) (from UniProt P01138 19-121) (domain or fragment)
[2]
  GSTpro signal compared to wt sortilin transfected cells: 60 % higher

## Cc1cc(=O)oc2c(CN[C@@H](CC(C)C)C(=O)O)c(O)ccc12 [AF40431]
Sortilin [3]
  blocking of sortilin-neurotensin interaction (in words): blocked sortilin-neurotensin interaction
